The values below come from paper PMC4273943 (Molecular microbiology, 2011).

This assay has as its target CRP homolog RC1_3788 (CgrA) (Rhodospirillum centenum, UniProt B6IXV7). Briefly: isothermal titration calorimetry. The class given is binding. A general note: In ITC the heat of successive injections is recorded.

Consider `Nc1nc2c(ncn2[C@@H]2O[C@@H]3COP(=O)(O)O[C@H]3[C@H]2O)c(=O)[nH]1` [cGMP], for which the Kd (in general, the equilibrium constant for the complex coming apart) is 38.5 nM.
